Source: article PMC8222254, “Self-assembly of an anion receptor with metal-dependent kinase inhibition and potent in vitro anti-cancer properties” (Nature Communications, 2021)
Several values for one entry are separate records, joined by “and”; a condition that tells them apart may be missing. Identical values can stand only once.

Legend:
Assay in all cases: Kinase inhibition screen, cell-free 33P ATP assay at 10 μM
Format in all cases: biochemical
[1] = biological target: 140 purified human kinases (Homo sapiens, UniProt Q13233)
Procedure, shortened: (§1)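 Each complex tested in duplicate at 10 μM; cell-free radiometric assay using ^33P ATP on purified enzymes. Hits mapped by HGNC symbol onto the kinome tree.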

[2] = biological target: 140 purified human kinases (Homo sapiens, UniProt Q14012); conditions: for % Activity inhibition Mean / % Activity inhibition Run 1 / % Activity inhibition Run 2 / % Activity remaining Run 1 / % Activity remaining Run 2: 10 µM
Procedure, shortened: as §1

[3] = biological target: 140 purified human kinases (Homo sapiens, UniProt Q9BUB5)
Procedure, shortened: as §1

[4] = biological target: T1, 140 purified human kinases (Homo sapiens, UniProt P33981); conditions: TTK
T1 sequence (P33981 1-857): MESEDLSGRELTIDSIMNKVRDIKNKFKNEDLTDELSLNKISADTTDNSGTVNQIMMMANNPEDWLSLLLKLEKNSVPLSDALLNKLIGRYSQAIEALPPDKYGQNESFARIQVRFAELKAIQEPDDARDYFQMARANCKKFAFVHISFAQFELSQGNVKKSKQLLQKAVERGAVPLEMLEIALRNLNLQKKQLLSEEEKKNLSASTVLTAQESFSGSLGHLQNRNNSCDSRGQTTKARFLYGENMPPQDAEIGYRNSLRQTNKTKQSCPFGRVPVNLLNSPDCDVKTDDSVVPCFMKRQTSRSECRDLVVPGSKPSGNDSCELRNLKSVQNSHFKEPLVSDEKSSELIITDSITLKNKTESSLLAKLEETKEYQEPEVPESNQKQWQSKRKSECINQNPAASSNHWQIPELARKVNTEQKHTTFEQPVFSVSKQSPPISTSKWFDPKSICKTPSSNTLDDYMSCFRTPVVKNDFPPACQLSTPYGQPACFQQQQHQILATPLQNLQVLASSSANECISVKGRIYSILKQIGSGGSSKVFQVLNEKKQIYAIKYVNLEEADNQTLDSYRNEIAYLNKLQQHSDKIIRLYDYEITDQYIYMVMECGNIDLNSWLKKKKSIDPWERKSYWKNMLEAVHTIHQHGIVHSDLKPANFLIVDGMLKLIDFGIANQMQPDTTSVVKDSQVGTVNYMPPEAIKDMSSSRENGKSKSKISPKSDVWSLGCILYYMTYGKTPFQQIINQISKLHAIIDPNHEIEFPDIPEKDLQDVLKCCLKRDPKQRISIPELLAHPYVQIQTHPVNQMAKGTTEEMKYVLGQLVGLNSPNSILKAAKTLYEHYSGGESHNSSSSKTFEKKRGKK
Procedure, shortened: as §1

[5] = biological target: T2, 140 purified human kinases (Homo sapiens, UniProt O43318)
T2 sequence (O43318 1-606): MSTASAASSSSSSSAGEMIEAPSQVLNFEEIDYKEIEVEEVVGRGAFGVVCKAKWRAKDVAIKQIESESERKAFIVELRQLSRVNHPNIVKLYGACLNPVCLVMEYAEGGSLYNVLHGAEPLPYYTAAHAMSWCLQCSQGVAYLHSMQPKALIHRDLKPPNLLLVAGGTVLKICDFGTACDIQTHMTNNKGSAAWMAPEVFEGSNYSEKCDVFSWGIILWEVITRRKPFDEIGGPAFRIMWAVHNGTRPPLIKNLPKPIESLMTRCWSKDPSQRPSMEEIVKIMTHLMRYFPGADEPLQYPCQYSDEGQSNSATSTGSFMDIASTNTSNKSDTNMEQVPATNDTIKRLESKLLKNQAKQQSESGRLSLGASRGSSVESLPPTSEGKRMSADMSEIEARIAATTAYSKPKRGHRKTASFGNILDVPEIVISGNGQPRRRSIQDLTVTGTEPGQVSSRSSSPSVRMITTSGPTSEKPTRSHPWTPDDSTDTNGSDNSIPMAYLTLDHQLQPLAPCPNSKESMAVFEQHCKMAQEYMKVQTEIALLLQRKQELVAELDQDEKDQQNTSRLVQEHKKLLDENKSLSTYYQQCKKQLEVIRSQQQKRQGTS
Procedure, shortened: as §1

[6] = biological target: 140 purified human kinases (Homo sapiens, UniProt Q9NQU5)
Procedure, shortened: as §1

[7] = biological target: T3, 140 purified human kinases (Homo sapiens, UniProt O14757)
T3 sequence (O14757 1-476): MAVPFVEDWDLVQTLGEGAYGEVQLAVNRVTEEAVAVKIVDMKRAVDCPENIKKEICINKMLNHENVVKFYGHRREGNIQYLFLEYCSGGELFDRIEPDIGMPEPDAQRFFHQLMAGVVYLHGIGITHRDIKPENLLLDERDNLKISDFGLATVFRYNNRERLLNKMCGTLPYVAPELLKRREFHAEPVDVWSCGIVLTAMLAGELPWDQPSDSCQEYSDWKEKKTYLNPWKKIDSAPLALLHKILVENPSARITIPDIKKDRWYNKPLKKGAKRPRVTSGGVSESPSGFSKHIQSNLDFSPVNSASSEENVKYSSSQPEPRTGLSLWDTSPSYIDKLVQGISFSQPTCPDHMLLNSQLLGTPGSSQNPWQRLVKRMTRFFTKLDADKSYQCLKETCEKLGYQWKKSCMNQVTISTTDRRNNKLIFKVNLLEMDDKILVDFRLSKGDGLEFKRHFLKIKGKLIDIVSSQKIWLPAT
Procedure, shortened: as §1

140 purified human kinases (Homo sapiens, UniProt Q9NQU5), sequence (Q9NQU5 whole entry): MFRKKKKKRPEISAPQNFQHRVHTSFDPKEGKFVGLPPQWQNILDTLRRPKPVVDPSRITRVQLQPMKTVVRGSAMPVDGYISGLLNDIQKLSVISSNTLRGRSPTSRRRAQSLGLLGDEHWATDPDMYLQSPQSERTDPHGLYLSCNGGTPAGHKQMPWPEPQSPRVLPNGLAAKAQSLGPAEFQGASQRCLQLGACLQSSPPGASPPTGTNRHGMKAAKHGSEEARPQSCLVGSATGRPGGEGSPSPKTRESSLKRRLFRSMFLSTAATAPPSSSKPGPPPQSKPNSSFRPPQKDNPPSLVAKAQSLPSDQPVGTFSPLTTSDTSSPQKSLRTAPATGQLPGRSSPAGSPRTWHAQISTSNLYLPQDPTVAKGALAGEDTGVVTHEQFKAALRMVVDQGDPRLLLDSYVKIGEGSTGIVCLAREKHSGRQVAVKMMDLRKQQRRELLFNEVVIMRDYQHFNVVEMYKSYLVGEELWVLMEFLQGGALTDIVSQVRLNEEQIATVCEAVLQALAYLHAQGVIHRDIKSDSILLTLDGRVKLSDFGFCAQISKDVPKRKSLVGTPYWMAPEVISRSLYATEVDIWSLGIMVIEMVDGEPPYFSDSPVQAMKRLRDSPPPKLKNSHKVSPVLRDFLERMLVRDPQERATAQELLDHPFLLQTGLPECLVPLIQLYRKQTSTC
140 purified human kinases (Homo sapiens, UniProt Q13233), sequence (Q13233 whole entry): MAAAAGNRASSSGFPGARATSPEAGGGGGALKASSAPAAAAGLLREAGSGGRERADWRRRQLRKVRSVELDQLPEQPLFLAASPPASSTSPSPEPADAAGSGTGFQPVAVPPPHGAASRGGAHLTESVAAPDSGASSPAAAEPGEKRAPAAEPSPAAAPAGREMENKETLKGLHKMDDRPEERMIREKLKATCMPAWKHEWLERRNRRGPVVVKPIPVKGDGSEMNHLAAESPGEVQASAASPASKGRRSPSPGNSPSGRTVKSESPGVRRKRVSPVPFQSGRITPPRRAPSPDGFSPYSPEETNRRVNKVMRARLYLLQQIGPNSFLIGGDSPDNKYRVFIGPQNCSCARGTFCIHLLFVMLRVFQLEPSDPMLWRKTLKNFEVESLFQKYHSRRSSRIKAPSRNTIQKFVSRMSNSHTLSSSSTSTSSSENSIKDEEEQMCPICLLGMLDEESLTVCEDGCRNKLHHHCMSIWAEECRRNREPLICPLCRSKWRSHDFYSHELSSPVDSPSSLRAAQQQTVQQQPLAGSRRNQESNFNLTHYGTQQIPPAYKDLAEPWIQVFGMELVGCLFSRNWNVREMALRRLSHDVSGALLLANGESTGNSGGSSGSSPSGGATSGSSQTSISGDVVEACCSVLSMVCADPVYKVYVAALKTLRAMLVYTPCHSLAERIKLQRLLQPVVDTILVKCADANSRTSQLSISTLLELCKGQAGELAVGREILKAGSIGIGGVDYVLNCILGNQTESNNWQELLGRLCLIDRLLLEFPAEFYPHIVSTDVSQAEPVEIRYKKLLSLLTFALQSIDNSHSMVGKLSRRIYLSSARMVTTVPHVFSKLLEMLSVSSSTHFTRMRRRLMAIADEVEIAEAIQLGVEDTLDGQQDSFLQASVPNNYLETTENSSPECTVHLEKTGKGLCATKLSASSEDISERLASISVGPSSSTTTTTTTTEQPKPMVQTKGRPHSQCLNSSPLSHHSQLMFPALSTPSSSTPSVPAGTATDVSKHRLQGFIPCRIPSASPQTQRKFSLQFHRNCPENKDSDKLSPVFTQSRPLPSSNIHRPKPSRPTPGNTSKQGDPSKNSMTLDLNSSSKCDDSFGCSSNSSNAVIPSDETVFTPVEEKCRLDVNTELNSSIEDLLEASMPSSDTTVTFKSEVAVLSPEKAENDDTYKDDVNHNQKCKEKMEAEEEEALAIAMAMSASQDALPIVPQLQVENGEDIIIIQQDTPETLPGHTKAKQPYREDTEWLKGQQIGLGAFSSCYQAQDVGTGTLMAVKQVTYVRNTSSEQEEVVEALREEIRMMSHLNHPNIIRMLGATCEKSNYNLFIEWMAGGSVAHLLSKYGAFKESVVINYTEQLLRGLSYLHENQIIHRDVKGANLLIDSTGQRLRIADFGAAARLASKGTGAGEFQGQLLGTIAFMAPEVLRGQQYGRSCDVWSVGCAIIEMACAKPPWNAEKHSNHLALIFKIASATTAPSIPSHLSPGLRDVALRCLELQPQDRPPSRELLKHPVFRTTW
140 purified human kinases (Homo sapiens, UniProt Q14012), sequence (Q14012 whole entry): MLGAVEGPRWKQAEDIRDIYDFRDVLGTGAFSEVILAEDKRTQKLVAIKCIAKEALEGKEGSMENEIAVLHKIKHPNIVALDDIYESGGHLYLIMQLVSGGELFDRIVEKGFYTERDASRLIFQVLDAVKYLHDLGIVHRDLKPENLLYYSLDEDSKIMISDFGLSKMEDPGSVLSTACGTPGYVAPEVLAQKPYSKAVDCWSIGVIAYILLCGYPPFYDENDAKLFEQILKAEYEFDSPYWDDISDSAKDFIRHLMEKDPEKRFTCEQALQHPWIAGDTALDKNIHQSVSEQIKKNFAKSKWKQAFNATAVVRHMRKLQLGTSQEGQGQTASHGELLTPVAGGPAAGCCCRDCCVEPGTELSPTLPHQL
140 purified human kinases (Homo sapiens, UniProt Q9BUB5), sequence (Q9BUB5 whole entry): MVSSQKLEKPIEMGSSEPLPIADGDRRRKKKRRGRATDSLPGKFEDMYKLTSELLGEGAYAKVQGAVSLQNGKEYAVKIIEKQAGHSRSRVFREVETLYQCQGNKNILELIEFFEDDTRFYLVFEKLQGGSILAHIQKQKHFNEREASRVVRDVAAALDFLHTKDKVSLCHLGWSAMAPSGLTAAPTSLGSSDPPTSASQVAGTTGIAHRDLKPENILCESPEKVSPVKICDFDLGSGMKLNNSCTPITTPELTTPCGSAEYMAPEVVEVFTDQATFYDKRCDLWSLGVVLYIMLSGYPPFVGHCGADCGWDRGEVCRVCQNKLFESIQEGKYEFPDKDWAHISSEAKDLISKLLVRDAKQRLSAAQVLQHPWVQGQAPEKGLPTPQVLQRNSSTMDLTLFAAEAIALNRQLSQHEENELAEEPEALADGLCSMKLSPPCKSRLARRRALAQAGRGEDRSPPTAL

## CC(=O)[O-].CC(=O)[O-].CC(=O)[O-].CC(=O)[O-].CC(=O)[O-].CC(=O)[O-].[Zn+2].[Zn+2].[Zn+2].c1ccc(-c2csc(NCCN(CCNc3nc(-c4ccccn4)cs3)CCNc3nc(-c4ccccn4)cs3)n2)nc1.c1ccc(-c2csc(NCCN(CCNc3nc(-c4ccccn4)cs3)CCNc3nc(-c4ccccn4)cs3)n2)nc1 [[L2Zn3]6+]
[1]; MEKK1
  % Inhibition, Mean: 17%
  mean % activity: 83%
[1]; MEKK1, duplicate runs
  % activity: 75% and 92%
[2]; CAMK1
  % Inhibition, Mean: 96%
  % Inhibition, Run 1 / Run 2: 94% and 98%
  mean % activity: 3.6%
  % Activity inhibition Mean: 96.0%
  % Activity inhibition Run 1: 94%
  % Activity inhibition Run 2: 98%
  % Activity remaining Run 1: 6%
  % Activity remaining Run 2: 2%
[2]; CAMK1, duplicate runs
  % activity: 5.6% and 1.6%
[3]; MNK1
  % Activation, Mean value: 14%
  % Inhibition, Mean: -14%
  % Inhibition, Run 1 / Run 2: -12% and -15%
  mean % activity: 114%
[3]; MNK1, 10 µM
  % Activity Run 1: 112.0%
  % Activity Run 2: 115.0%
[3]; MNK1, duplicate runs
  % activity: 112% and 115%
[4]
  % Inhibition, Mean: 33%
  % Inhibition, Run 1 / Run 2: 37% and 28%
  mean % activity: 67%
[4]; duplicate runs
  % activity: 63% and 72%
[5]; TAK1
  % Inhibition, Mean: 35%
  % Inhibition, Run 1 / Run 2: 34% and 36%
  mean % activity: 65%
[5]; TAK1, duplicate runs
  % activity: 66% and 64%
[6]; PAK6
  % Inhibition, Mean: 27%
  mean % activity: 73%
[6]; PAK6, duplicate runs
  % activity: 63% and 83%
[7]; CHK1
  % Inhibition, Mean: 17%
  % Inhibition, Run 1 / Run 2: 18% and 16%
  mean % activity: 83%
[7]; CHK1, duplicate runs
  % activity: 82% and 84%

## [Cu+2].[Cu+2].[Cu+2].c1ccc(-c2csc(NCCN(CCNc3nc(-c4ccccn4)cs3)CCNc3nc(-c4ccccn4)cs3)n2)nc1.c1ccc(-c2csc(NCCN(CCNc3nc(-c4ccccn4)cs3)CCNc3nc(-c4ccccn4)cs3)n2)nc1 [[L2Cu3]6+]
[1]; MEKK1
  % Inhibition Run 1: 48.4%
  % Inhibition Run 2: 57.6%
  % Inhibition, Mean: 53%
  mean % activity: 47%
[1]; MEKK1, Run 1
  % activity: 51.6%
[1]; MEKK1, Run 2
  % activity: 42.4%
[2]; CAMK1
  % Inhibition Run 1: 94.9%
  % Inhibition Run 2: 96.1%
  % Inhibition, Mean: 96%
  mean % activity: 4.5%
  % Activity inhibition Mean: 95.5%
  % Activity inhibition Run 1: 94.9%
  % Activity inhibition Run 2: 96.1%
  % Activity remaining Run 1: 5.10%
  % Activity remaining Run 2: 3.90%
[2]; CAMK1, Run 1
  % activity: 5.1%
[2]; CAMK1, Run 2
  % activity: 3.9%
[3]; MNK1
  % Inhibition Run 1: 85.8%
  % Inhibition Run 2: 80.4%
  % Inhibition, Mean: 83%
  mean % activity: 17%
[3]; MNK1, Run 1
  % activity: 14.2%
[3]; MNK1, Run 2
  % activity: 19.6%
[4]
  % Inhibition Run 1: 41.9%
  % Inhibition Run 2: 45.5%
  % Inhibition, Mean: 44%
  mean % activity: 56%
[4]; Run 1
  % activity: 58.1%
[4]; Run 2
  % activity: 54.5%
[5]; TAK1
  % Inhibition Run 1: 45.7%
  % Inhibition Run 2: 51.7%
  % Inhibition, Mean: 49%
  mean % activity: 51%
[5]; TAK1, Run 1
  % activity: 54.3%
[5]; TAK1, Run 2
  % activity: 48.3%
[6]; PAK6
  % Inhibition Run 1: 49.1%
  % Inhibition Run 2: 47.9%
  % Inhibition, Mean: 49%
  mean % activity: 52%
[6]; PAK6, Run 1
  % activity: 50.9%
[6]; PAK6, Run 2
  % activity: 52.1%
[7]; CHK1
  % Inhibition Run 1: 45.6%
  % Inhibition Run 2: 41.5%
  % Inhibition, Mean: 44%
  mean % activity: 56%
[7]; CHK1, Run 1
  % activity: 54.4%
[7]; CHK1, Run 2
  % activity: 58.5%
